Test results: publication PMC9655717, “New Molecules of Diterpene Origin with Inhibitory Properties toward α-Glucosidase” (International Journal of Molecular Sciences, 2022)

Biological target: T1, yeast α-GLy (α-glucosidase, Sigma G0660) (Saccharomyces cerevisiae, UniProt P53341)
T1 construct: purchased Sigma G0660
Experiment: biochemical
Type: biochemical
Details: IC50 ± SE, α-glucosidase inhibition, yeast α-glucosidase, 37°C, pH 6.8
Procedure: S1. Materials and Methods […]
glucosidase inhibition assay. α-Glucosidase enzyme inhibition assay was carried out in a 96-well microplate. The method’s principle based on the hydrolyzed reaction of 4-nitrophenyl-α-D-glucopiranoside with α-glucosidase enzyme into yellow 4- […]
p-Nitrophenyl α-D-Glucoside a- Gl ucosidas e α-D-Glucose + p- Nitrophenol α-Glucosidase inhibitory activity assay was performed following the modified method of Pistia Brueggeman and Hollingsworth with slight modification. Quinopimaric […]
concentrations of 256, 64, 16, 4 and 1 µg/mL. In a 96-well plate, a reaction mixture containing 20 μL of phosphate buffer (100 mM; pH 6.8), 20 μL of α-glucosidase (0.3 U/mL, Sigma G0660) (this concentration was determined by a series of α-glucosidase […]
linearity between the enzyme concentration and the absorbance of yellow color mixture after reaction which was approximately 5-fold higher than the back ground and at least […]
concentrations was pre-incubated for 10 min at 37°C. Then 20 μL of […] p-nitrophenyl α-D-glucopyranoside (Sigma N1377) was added to the mixture as a substrate. After further incubation at 37°C for 30 min, the reaction was stopped by adding 80 μL of 0.1 […]
solution were prepared using the phosphate buffer […]; pH 6.8. […]
as a positive control and water as negative control. The yellow color produced was quantitated by colorimetric analysis and reading the absorbance at 410 nm. Each experiment was performed in triplicates, along with appropriate blanks. The solvent DMSO was use as negative control to evaluate its effect on α-glucosidase activity. […]
or substrate in negative control. Back ground was determined by volume of buffer as […]
The % inhibition has been obtained using the formula:
% inhibition = {Absorbance (control) –Absorbance (sample)}/Absorbance (control) IC50 value is defined as the concentration of samples inhibiting 50% of α-glucosidase activity under the stated assay conditions. […]

T1 sequence (P53341 whole entry): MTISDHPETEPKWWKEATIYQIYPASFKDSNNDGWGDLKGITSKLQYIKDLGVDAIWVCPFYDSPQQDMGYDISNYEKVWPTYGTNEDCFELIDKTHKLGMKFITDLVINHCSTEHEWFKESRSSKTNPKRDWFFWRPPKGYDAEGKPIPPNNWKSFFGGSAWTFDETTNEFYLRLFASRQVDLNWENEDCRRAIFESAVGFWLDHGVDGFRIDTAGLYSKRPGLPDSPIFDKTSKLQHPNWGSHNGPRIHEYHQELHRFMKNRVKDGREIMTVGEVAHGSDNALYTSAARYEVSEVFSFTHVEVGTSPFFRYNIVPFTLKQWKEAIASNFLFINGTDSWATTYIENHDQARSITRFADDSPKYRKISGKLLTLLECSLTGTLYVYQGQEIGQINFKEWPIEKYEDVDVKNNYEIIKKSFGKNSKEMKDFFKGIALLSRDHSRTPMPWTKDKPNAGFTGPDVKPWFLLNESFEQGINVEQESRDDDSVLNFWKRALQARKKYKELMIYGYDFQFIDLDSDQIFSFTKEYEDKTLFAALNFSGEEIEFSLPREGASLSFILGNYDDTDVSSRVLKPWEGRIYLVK

| SMILES | IC50 |
| --- | --- |
| COC(=O)[C@]1(C)CCC[C@]2(C)[C@H]3C[C@H]4C(C(C)C)=C[C@]3(CC[C@H]21)[C@@H]1C(=O)CC[C@H](OC(=O)c2cccnc2)[C@@H]14 [Compound 19] | > 255 µM |
| CC(C)C1=CC23CCC4C(C)(C(=O)O)CCCC4(C)C2CC1c1c(O)ccc(O)c13 (centres unmarked) [Compound 49] | > 255 µM |
| C#CCNC(=O)[C@]1(C)CCC[C@]2(C)[C@H]3C[C@H]4C(C(C)C)=C[C@]3(CC[C@H]21)[C@@H]1C(=O)CCC(=O)[C@@H]14 [Compound 10] | > 255 µM |
| COC(=O)C(C)NC(=O)[C@]1(C)CCC[C@]2(C)[C@H]3C[C@H]4C(C(C)C)=C[C@]3(CC[C@H]21)[C@@H]1C(=O)CCC(=O)[C@@H]14 (some centres unmarked) [Compound 12] | > 255 µM |
| CC(C)C1=CC23CCC4C(C)(C(=O)O)CCCC4(C)C2CC1C1=C3C(=O)C=CC1=O (centres unmarked) [Compound 40, 1a,4a-dehydroquinopimaric acid] | 7.09 ± 0.12 µM |
| COC(=O)[C@]1(C)CCC[C@]2(C)[C@H]3C[C@H]4C(C(C)C)=C[C@]3(CC[C@H]21)[C@H]1[C@@H]4[C@@H](OCCC#N)CC[C@@H]1OCCC#N [Compound 22] | > 255 µM |
| COC(=O)[C@]1(C)CCC[C@]2(C)[C@H]3C[C@@H]4[C@H]5[C@@H]6Cc7cn[nH]c7[C@H]5[C@@]3(CC[C@H]21)C[C@@]4(C(C)C)O6 [Compound 31] | > 255 µM |
| COC(=O)[C@]1(C)CCC[C@]2(C)[C@H]3C[C@H]4C(C(C)C)=C[C@]3(CC[C@H]21)[C@H]1[C@@H]4[C@@H](OCCC(N)=NO)CC[C@@H]1OCCC(N)=NO [Compound 23] | > 255 µM |
| COC(=O)[C@]1(C)CCC[C@]2(C)[C@H]3C[C@H]4C(C(C)C)=C[C@]3(CC[C@H]21)[C@@H]1C(=O)CC[C@H](OC(=O)CCC(=O)O)[C@@H]14 [Compound 17] | > 255 µM |
| COC(=O)[C@]1(C)CCC[C@]2(C)[C@H]3C[C@@H]4[C@H]5[C@@H]6CCC(=NO)[C@H]5[C@@]3(CC[C@H]21)C[C@@]4(C(C)C)O6 [Compound 4] | > 255 µM |
| COC(=O)[C@]1(C)CCC[C@]2(C)[C@H]3C[C@H]4C(C(C)C)=C[C@]3(CC[C@H]21)[C@@H]1C(=O)CC[C@H](OC(C)=O)[C@@H]14 [Compound 15] | > 255 µM |
| CC(C)C1=C[C@@]23CC[C@@H]4[C@](C)(CCC[C@@]4(C)C(=O)O)[C@H]2C[C@@H]1[C@H]1C(=O)CCC(=O)[C@H]13 [Compound 8, 2,3-dihydroquinopimaric acid] | 35.6 ± 0.92 µM |
| COC(=O)[C@]1(C)CCC[C@]2(C)[C@H]3C[C@H]4C(C(C)C)=C[C@]3(CC[C@H]21)[C@@H]1C(=O)CC[C@H](OCCC#N)[C@@H]14 [Compound 16] | > 255 µM |
| COC(=O)[C@]1(C)CCC[C@]2(C)[C@H]3C[C@@H]4[C@H]5[C@@H]6CC7NC(=S)NC7[C@H]5[C@@]3(CC[C@H]21)C[C@@]4(C(C)C)O6 (some centres unmarked) [Compound 32] | 9.66 ± 0.77 µM |
| CC(C)C1=C[C@@]23CC[C@@H]4[C@](C)(CCC[C@@]4(C)C(=O)O)[C@H]2C[C@@H]1[C@H]1C(=O)C=CC(=O)[C@H]13 [Compound 1, quinopimaric acid] | 59.59 ± 0.18 µM |
| COC(=O)[C@]1(C)CCC[C@]2(C)[C@H]3C[C@@H]4[C@H]5[C@@H]6CCC(=NOCCC#N)[C@H]5[C@@]3(CC[C@H]21)C[C@@]4(C(C)C)O6 [Compound 5] | > 255 µM |
| CC(C)C1=C[C@@]23CC[C@H]4[C@](C)(CO)CCC[C@]4(C)[C@H]2C[C@@H]1[C@@H]1[C@H]3[C@@H](O)CC[C@@H]1O [Compound 2] | > 255 µM |
| COC(=O)C(CCSC)NC(=O)[C@]1(C)CCC[C@]2(C)[C@H]3C[C@H]4C(C(C)C)=C[C@]3(CC[C@H]21)[C@@H]1C(=O)CCC(=O)[C@@H]14 (some centres unmarked) [Compound 13] | > 255 µM |
| COC(=O)[C@]1(C)CCC[C@]2(C)[C@H]3C[C@H]4C(C(C)C)=C[C@]3(CC[C@H]21)[C@H]1[C@@H]4[C@@H](O)CC[C@@H]1O [Compound 21] | > 255 µM |
| COC(=O)[C@]1(C)CCC[C@@]2(C)[C@H]1CC[C@]13C=C(C(C)C)[C@H](C[C@H]21)C1=C3C(=O)C=CC1=O [Compound 41, 1a,4a-dehydroquinopimaric acid methyl ester] | > 255 µM |
| CCOC(=O)c1c(C)[nH]c2c3c(c(O)cc12)[C@H]1C[C@@H]2[C@@]4(C)CCC[C@@](C)(C(=O)OC)[C@@H]4CC[C@@]32C=C1C(C)C [Compound 43, Methyl 1-Hydroxy-13-Isopropyl-1′-(Ethoxycarbonyl)-7,10a,2′-Trimethyl-5,6,6b,7,8,9,10,10a,10b,11,12,13-Dodecahydro-12,4b-Ethenophenanthro-[2,1-g]indole-7-Carboxylate] | > 255 µM |
| COC(=O)[C@]1(C)CCC[C@]2(C)[C@H]3C[C@H]4C(C(C)C)=C[C@]3(CC[C@H]21)[C@H]1[C@@H]4[C@@H](OC(=O)c2cccnc2)CC[C@@H]1OC(=O)c1cccnc1 [Compound 24] | > 255 µM |
| COC(=O)[C@]1(C)CCC[C@]2(C)[C@H]3C[C@H]4C(C(C)C)=C[C@]3(CC[C@H]21)[C@@H]1c2[nH]c3ccccc3c2-c2c([nH]c3ccccc23)[C@@H]14 [Compound 34] | > 255 µM |
| COC(=O)[C@]1(C)CCC[C@]2(C)[C@H]3C[C@H]4C(C(C)C)=C[C@]3(CC[C@H]21)[C@@H]1C(=O)CC[C@H](O)[C@@H]14 [Compound 14] | > 255 µM |
| COC(=O)[C@]1(C)CCC[C@]2(C)[C@H]3C[C@H]4C(C(C)C)=C[C@]3(CC[C@H]21)[C@@H]1C(=O)CC[C@H](OC(=O)c2ccccc2C(=O)O)[C@@H]14 [Compound 20] | > 255 µM |
| COC(=O)[C@]1(C)CCC[C@]2(C)[C@H]3C[C@@H]4[C@H]5[C@@H]6Cc7c([nH]c8ccccc78)[C@H]5[C@@]3(CC[C@H]21)C[C@@]4(C(C)C)O6 [Compound 33] | 65.98 ± 0.03 µM |
| CC(C)C1=C[C@@]23CC[C@@H]4[C@](C)(CCC[C@@]4(C)C(=O)N4CCCNCC4)[C@H]2C[C@@H]1[C@H]1C(=O)CCC(=O)[C@H]13 [Compound 11] | > 255 µM |
| COC(=O)[C@]1(C)CCC[C@]2(C)[C@H]3C[C@H]4C(C(C)C)=C[C@]3(CC[C@H]21)[C@@H]1C(=O)CC[C@H](OC(=O)CCCC(=O)O)[C@@H]14 [Compound 18] | > 255 µM |
| COC(=O)[C@]1(C)CCC[C@]2(C)[C@H]3C[C@@H]4[C@H]5[C@@H]6CC(Br)C(=O)[C@H]5[C@@]3(CC[C@H]21)C[C@@]4(C(C)C)O6 (some centres unmarked) [Compound 25] | > 255 µM |
| COC(=O)[C@]1(C)CCC[C@]2(C)[C@H]3C[C@@H]4[C@H]5[C@@H]6CCC(=O)[C@H]5[C@@]3(CC[C@H]21)C[C@@]4(C(C)C)O6 [Compound 3, 1β,13α-epoxy methyldihydroquinopimarate] | > 255 µM |

Same assay, conditions: ratio of α-GLy IC50 values versus acarbose

| SMILES | times more active (potent) than acarbose |
| --- | --- |
| CC(C)C1=C[C@@]23CC[C@@H]4[C@](C)(CCC[C@@]4(C)C(=O)O)[C@H]2C[C@@H]1[C@H]1C(=O)C=CC(=O)[C@H]13 [Compound 1, quinopimaric acid] | three times higher |

Same assay, conditions: yeast α-glucosidase, 37°C, pH 6.8; read-out: IC50 ± SE, α-glucosidase inhibition

| SMILES | IC50 |
| --- | --- |
| COC(=O)c1c(C)[nH]c2c3c(c(OC(C)=O)cc12)[C@H]1C[C@@H]2[C@@]4(C)CCC[C@@](C)(C(=O)OC)[C@@H]4CC[C@@]32C=C1C(C)C [Compound 37] | 7.28 ± 0.4 µM |
| COC(=O)[C@]1(C)CCC[C@]2(C)[C@H]3C[C@@H]4[C@H]5[C@@H]6CC(=Cc7ccccc7)C(=O)[C@H]5[C@@]3(CC[C@H]21)C[C@@]4(C(C)C)O6 [Compound 26] | 13.08 ± 0.01 µM |
| CC(C)C1=C[C@@]23CC[C@@H]4[C@](C)(CCC[C@@]4(C)C(=O)NCCCCNCCCN)[C@H]2C[C@@H]1[C@H]1C(=O)CCC(=O)[C@H]13 [Compound 9] | 35.2 ± 0.71 µM |
| COC(=O)c1c(C)[nH]c2c3c(c(O)cc12)[C@H]1C[C@@H]2[C@@]4(C)CCC[C@@](C)(C(=O)OC)[C@@H]4CC[C@@]32C=C1C(C)C [Compound 36] | 8.94 ± 0.96 µM |
| COC(=O)[C@]1(C)CCC[C@]2(C)[C@H]3C[C@@H]4[C@H]5[C@@H]6CC(=Cc7cccnc7)C(=O)[C@H]5[C@@]3(CC[C@H]21)C[C@@]4(C(C)C)O6 [Compound 30] | 38.8 ± 0.33 µM |
| COC(=O)c1c(C)[nH]c2c3c(c(O)cc12)[C@H]1C[C@@H]2[C@@]4(C)CCC[C@@](C)(C(=O)O)[C@@H]4CC[C@@]32C=C1C(C)C [Compound 35] | 7.95 ± 0.2 µM |
| COC(=O)[C@]1(C)CCC[C@]2(C)[C@H]3C[C@@H]4[C@H]5[C@@H]6CC(=Cc7ccco7)C(=O)[C@H]5[C@@]3(CC[C@H]21)C[C@@]4(C(C)C)O6 [Compound 29] | 1.63 ± 0.041 µM |
| COC(=O)[C@]1(C)CCC[C@]2(C)[C@H]3C[C@H]4C(C(C)C)=C[C@]3(CC[C@H]21)[C@@H]1C(=O)C(=Cc2ccc(OC)cc2)C[C@H](O)[C@@H]14 [Compound 6] | 1.63 ± 0.006 µM |
| COC(=O)[C@]1(C)CCC[C@]2(C)[C@H]3C[C@@H]4[C@H]5[C@@H]6CC(=Cc7ccc(OC)cc7)C(=O)[C@H]5[C@@]3(CC[C@H]21)C[C@@]4(C(C)C)O6 [Compound 27] | > 255 µM |
| COC(=O)[C@]1(C)CCC[C@]2(C)[C@H]3C[C@@H]4[C@H]5[C@@H]6CC(=Cc7ccc(OC)c(OC)c7)C(=O)[C@H]5[C@@]3(CC[C@H]21)C[C@@]4(C(C)C)O6 [Compound 28] | 12.7 ± 0.21 µM |
